According to patent US9540325B2, “N1-cyclic amine-N5-substituted phenyl biguanide derivatives, methods of preparing the same and pharmaceutical composition comprising the same” (Immunomet Therapeutics, Inc., priority 2011, dated 2017):
Where a name gives a salt, the structure may show the parent alone.

Legend:
[1] = tested on: MCF7 cells (breast cancer stem cell, mammosphere); assay: Measurement of effect of inhibiting mammosphere formation; type: cell-based, human; details: MCF7, 8 days; for Number of Mammospheres: size 50 um or more
Excerpt: The cancer stem cells refer to cancer cells that have self-regeneration or differentiation capacity which is characteristically innate to stem cells. Here, the cancer stem cells show resistance to conventional anticancer therapy and poor prognosis. Therefore, the biguanide derivative has an effect of inhibiting cancer recurrence by inhibiting formation and proliferation of cancer stem cells, especially, breast cancer stem cells (mammosphere). Accordingly, the effect of the biguanide derivative of inhibiting breast cancer stem cell (mammosphere) formation was measured in an MCF7 cell line derived from human breast cancer forming mammospheres, and simple experimental methods are described, as follows.
MCF7 cells derived from human breast cancer were cultured (culture temperature: 37° C., pH: 7.0 to 7.4) in a DMEM medium supplemented with 10% (v/v) fetal bovine serum (commercially available from Gibco Life Technologies (US)) so that the MCF7 cells could grow to approximately 80% confluency and used in an experiment to determine an ability to form mammospheres. After MCF7 cells were made to single cells and the number of cell was counted, MCF7 cells were put in to a 24-well plate at 2,000 cells/well. […] Also, a culture media for forming mammospheres was prepared so that a serum-free DMEM/F12 medium could include 2% B27 (commercially available from Invitrogen), 20 ng/ml EGF (commercially available from Sigma), 5 μg/ml insulin (commercially available from Sigma) and 1 μg/ml hydrocortisone (commercially available from Sigma). Cells were cultured in a CO2 incubator for 24 hours and treated with each of the compounds synthesized in the examples at contents of 0.1 μM, 1 μM, 5 μM and 10 μM. Then, the cultured cells were added to the culture media for forming mammospheres so that a final volume of the culture broth could be adjusted to 1 ml. The cells were treated with the same concentrations of phenformin hydrochloride as the control and cultured in a CO2 incubator for 8 days. Thereafter, the mammosphere-forming efficiency and size of the cells were observed. After 8 days, the number of mammospheres having a size of 50 um or more was determined to calculate the mammosphere-forming efficiency (MFE (%)). The MFE (%) is calculated according to the following Equation 1.
When the cells were cultured for 8 days, MFE (%) of the cells on a plate treated with the phenformin hydrochloride and the compounds synthesized in the examples was compared with MFE (%) of the cells on a plate that was not treated with the compounds. The results are listed as the mammosphere formation inhibition rate (%) in the following Table 4, and the mammosphere-forming efficiencies of the respective compounds are shown in FIG. 1.

Snail = assay: EMT inhibitory effect by inhibition of Snail expression (immunoblotting) in MCF7 cells; type: cell-based, human; details: MCF7, 48 hours, untreated control = 100%
Protocol: Cells undergoing EMT owing to various cytokines and growth factors can acquire motility and thus move a distance to form tumors in new tissues. Therefore, the metastasis of cancer cells can be inhibited by controlling expression of EMT-related transcription factors to hinder EMT. Based on these facts, the activities of biguanide derivatives that inhibit Snail expression, which is a transcription factor inducing EMT in the MCF7 cell line derived from human breast cancer, were measured and simple experimental methods are described, as follows.
MCF7 cells derived from human breast cancer (commercially available from Korean Cell Line Bank) were cultured in a DMEM medium supplemented with 10% (v/v) fetal bovine serum (commercially available from Gibco Life Technologies (US)), put into a 6-well plate so that the number of cultured cells could amount to approximately 5×10^5 cells per well, and then incubated in an incubator supplied with 5% CO2 (culture temperature: 37° C., pH: 7.0 to 7.4). The culture media were treated with phenformin hydrochloride and the compounds synthesized in the examples at contents of 1 μM and 10 μM, respectively, and then incubated for 48 hours. Metformin hydrochloride was used as the control, and the cells were treated with 1 mM and 10 mM metformin hydrochloride. After 48 hours, the cells were lysed in a cell lysis buffer containing 10 mM Tris HCl (pH7.4), 100 mM NaCl, 1 mM EDTA, 1 mM EGTA, 1 mM NaF, 20 mM Na4P2O7, 2 mM Na3VO4, 1% TritonX-100, 10% glycerol, 0.5% deoxycholate and 1 mM PMSF. Then, 25 μg of the cell lysate was electrophoresized in an SDS-PAGE gel, and then transferred to a […] membrane (commercially available from Amersham Life Science). The membrane reacted with rat monoclonal anti-human Snail (commercially available from Cell signaling Technology) or mouse monoclonal anti-β-actin (commercially available from Santa cruz Biotechnology), and unbound antibodies were removed. In this case, anti-β-actin was used as the antibody to ensure that the amount of proteins loaded into the SDS-PAGE gel is identical. The membrane was reacted again with a secondary antibody, anti-rat IgG (commercially available from Cell signaling Technology) or anti-mouse IgG (commercially available from Santa Cruz Biotechnology). Finally, the antibody bound to the membrane was detected using an ECL Plus system (commercially available from Amersham Life Science). Also, the expression level of Snail with respect to β-actin was analyzed using a Scion image analysis program. Here, when it was assumed that the expression level of the untreated control was 100%, the expression level of the Snail by treatment with the compounds synthesized in the examples was indicated as a percentage (%).

AMPKα = assay: Measurement of AMPK activation effect (AMPKα Thr172 phosphorylation immunoassay) in MCF7 cells; type: cell-based, human; details: 24 hours; for AMPK activation effect AC150: concentration at which AMPK activation reached 150%
In short: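 MCF7 cells in DMEM/10% FBS were treated 24 h with derivatives at 5, 10 and 50 μM (metformin hydrochloride control, 0.05–10 mM). AMPKα Thr172 phosphorylation was measured by immunoassay on 20 μg lysate. AC150 (concentration giving 150% activation) came from concentration–response curves, with activation also reported at fixed concentrations.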

HCT116 cells = assay: Measurement of effect of inhibiting cancer cell proliferation (MTT); type: cell-based, human; details: Homo sapiens; for inhibition at 100 µM: HCT-116, 100 μM, 48 hours, read-out: Cell Growth Inhibition (%) at 100 μM; for GI50: HCT-116, 48 h
In short: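 HCT116 cells (~5,000/well, DMEM with 10% FBS) treated 48 h with compound at 0.39–100 μM, metformin hydrochloride control at 0.1–25 mM. Viability by MTT (3 h, formazan in DMSO, A560) relative to untreated wells; GIC50 from the viability curve, also viability at 100 μM.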

[2] = Solubility in water of hydrochloride and acetate salts; type: physicochemical; details: content 5 mg/1 ml distilled water, room temperature
Protocol: The solubilities in water of the hydrochlorides prepared in Examples 26, 27, 32, 33, 48, 49, 53 and 54, and the solubilities in water of the acetates prepared in Examples 70 to 77, were compared.
The experimental conditions and methods are described, as follows.
1) 1 ml of distilled water is added to a container including 5 mg of salt at room temperature.
2) The resulting mixture is stirred for 10 minutes, and then kept at room temperature for 1 hour.
3) Undissolved residual salt is recovered and weighed.
4) The ratio of the amount of the recovered salt and the amount of the dissolved salt is calculated.
5) Operations 1) to 4) are repeatedly performed with increasing amount (i.e., 10, 15, 20, 25 and 30 mg) of salt.
The experimental procedures were performed for each of the hydrochlorides of Examples 26, 27, 32, 33, 48, 49, 53 and 54 and the acetates of Examples 70 to 77. The comparative solubilities obtained using the hydrochlorides of Examples 26, 27, 32, 33, 48, 49, 53 and 54 and the acetates of Examples 70 to 77 are listed in the following Table 1.

Row | Solubility in water (%), hydrochloride salt [2] [%] | GI50 (HCT116 cells) [µM] | melting point [°C] | SMILES | AMPK activation effect AC150 (AMPKα) [µM] | inhibition at 100 µM (HCT116 cells) [%] | AMPK activation effect at 10 μM (%) (AMPKα; relative to untreated cells) | other results
1 | – | – | – | [H]/N=C(/N)N/C(=N/[H])NCCc1ccccc1 [Phenformin hydrochloride, reference compound] | – | – | – | MFE (%) (mammosphere-forming efficiency) ([1]; 0.1 μM): 4.2%; Number of Mammospheres ([1]; 0.1 μM): 84 ± 2.8; MFE (%) (mammosphere-forming efficiency) ([1]; 1 μM): 3.9%; Number of Mammospheres ([1]; 1 μM): 79 ± 0.7; MFE (%) (mammosphere-forming efficiency) ([1]; 5 μM): 5.2%; Number of Mammospheres ([1]; 5 μM): 103 ± 1.4; MFE (%) (mammosphere-forming efficiency) ([1]; 10 μM): 5.8%; Number of Mammospheres ([1]; 10 μM): 116 ± 19.1; inhibition at 0.1 µM ([1]; Homo sapiens, 192 h, 0.1 μM, vs untreated, read-out: Mammosphere formation inhibition rate (%)): 18.4%; inhibition at 1 µM ([1]; Homo sapiens, 192 h, 1 μM, vs untreated, read-out: Mammosphere formation inhibition rate (%)): 23.8%; inhibition at 5 µM ([1]; Homo sapiens, 192 h, 5 μM, vs untreated, read-out: Mammosphere formation inhibition rate (%)): 0%; inhibition at 10 µM ([1]; Homo sapiens, 192 h, 10 μM, vs untreated, read-out: Mammosphere formation inhibition rate (%)): -12.1%; Snail Expression Rate (%) (Snail; 1 μM): 117.6%; Snail Expression Rate (%) (Snail; 10 μM): 53.8%
2 | – | – | – | CN(C)C(=N)N=C(N)N [Metformin hydrochloride, reference compound] | 188.3 | 1.8 | – | AMPK activation effect at 50 μM (%) (AMPKα; 50 μM, relative to untreated cells): 130.0%; Snail Expression Rate (%) (Snail; 1 mM): 70.3%; Snail Expression Rate (%) (Snail; 10 mM): 13.6%
3 | 20 | 7.6 | 278 to 279 | Cl.N=C(NC(=N)N1CCCC1)Nc1ccc(OC(F)(F)F)c(F)c1 [Example 53, N1-pyrrolidine-N5-(3-fluoro-4-trifluoromethoxy)phenyl biguanide hydrochloride] | 5.0 | 101 | 315 | –
4 | 20 | 4.5 | 262 to 263 | Cl.N=C(NC(=N)N1CCCCC1)Nc1ccc(OC(F)(F)F)c(F)c1 [Example 54, N1-piperidine-N5-(3-fluoro-4-trifluoromethoxy)phenyl biguanide hydrochloride] | 0.5 | 96.4 | 400 | –
5 | 20 | 5.2 | 263 to 264 | Cl.N=C(NC(=N)N1CCCCC1)Nc1ccc(C(F)(F)F)c(F)c1 [Example 49, N1-piperidine-N5-(3-fluoro-4-trifluoromethyl)phenyl biguanide hydrochloride] | 2.7 | 96.5 | 258 | –
